Measured values taken from ChEMBL document CHEMBL1201862, “PubChem BioAssay data set” (2004).
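Method: 48-hour compound exposure of cells in 96-well plates, five concentrations, linear interpolation of endpoints. Abbreviation: GI50, concentration required for 50% inhibition of growth.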 Active and inactive are the calls of the source. No stated cut-off is given here; in the data, active = GI50 up to about 1.1 µM and inactive = higher.

How the values were obtained:
Experiment in all cases: DTP human tumour cell line panel, 48 h
A498 = system: A498
CAKI-1 = system: CAKI-1
SNB-19 = system: SNB-19
SF-295 = system: SF-295
M14 = system: M14
HCT-15 = system: HCT-15
HOP-62 = system: HOP-62
RPMI-8226 = system: RPMI-8226
NCI-H23 = system: NCI-H23
EKVX = system: EKVX
HT-29 = system: HT-29
UO-31 = system: UO-31
TK-10 = system: TK-10
UACC-62 = system: UACC-62
COLO 205 = system: COLO 205
DU-145 = system: DU-145
MDA-N = system: MDA-N
NCI/ADR-RES = system: NCI/ADR-RES

Compound	GI50 (A498)	GI50 (CAKI-1)	GI50 (SNB-19)	GI50 (SF-295)	GI50 (M14)	GI50 (HCT-15)	GI50 (HOP-62)	GI50 (RPMI-8226)	GI50 (NCI-H23)	GI50 (EKVX)	GI50 (HT-29)	GI50 (UO-31)	GI50 (TK-10)	GI50 (UACC-62)	GI50 (COLO 205)	GI50 (DU-145)	GI50 (MDA-N)	GI50 (NCI/ADR-RES)
O=C(c1ccccc1)n1cc(-c2ccccc2)c2c(=O)nc[nH]c21	> 100 µM (inactive)	> 100 µM (inactive)	> 100 µM (inactive)	> 100 µM (inactive)	> 100 µM (inactive)	> 100 µM	> 100 µM (inactive)	> 100 µM (inactive)	> 100 µM (inactive)	> 100 µM (inactive)	> 100 µM (inactive)	> 100 µM (inactive)	> 100 µM (inactive)	> 100 µM (inactive)	> 100 µM (inactive)	> 100 µM (inactive)	> 100 µM (inactive)	> 100 µM (inactive)
CC(NC(=O)C(Cc1ccc(OC(=O)c2ccccc2)cc1)NC(=O)OC(C)(C)C)C(=O)NCC(=O)NC(Cc1ccccc1)C(=O)NN (centres undefined)	15 µM (inactive)	89.1 µM (inactive)	45.6 µM (inactive)	46.9 µM (inactive)	35.1 µM (inactive)	> 100 µM	83 µM (inactive)	15.8 µM (inactive)	74.5 µM (inactive)	> 100 µM (inactive)	31 µM (inactive)	> 100 µM (inactive)	70.3 µM (inactive)	40.6 µM (inactive)	23.8 µM (inactive)	> 100 µM (inactive)	37.1 µM (inactive)	> 100 µM (inactive)
O=C(CCC(=O)c1ccc(Cl)cc1)NO	> 100 µM (inactive)	> 100 µM (inactive)	> 100 µM (inactive)	> 100 µM (inactive)	> 100 µM (inactive)	> 100 µM	> 100 µM (inactive)	> 100 µM (inactive)	> 100 µM (inactive)	> 100 µM (inactive)	> 100 µM (inactive)	> 100 µM (inactive)	> 100 µM (inactive)	> 100 µM (inactive)	> 100 µM (inactive)	> 100 µM (inactive)	> 100 µM (inactive)	> 100 µM (inactive)
CC1=NN(C(=O)CC(=O)Nc2ccccc2C)C(=O)C1/N=N/c1ccc(C(=O)O)cc1 (centres undefined)	> 100 µM (inactive)	> 100 µM (inactive)	> 100 µM (inactive)	> 100 µM (inactive)	> 100 µM (inactive)	> 100 µM	> 100 µM (inactive)	> 100 µM (inactive)	> 100 µM (inactive)	> 100 µM (inactive)	> 100 µM (inactive)	48.6 µM (inactive)	> 100 µM (inactive)	> 100 µM (inactive)	> 100 µM (inactive)	> 100 µM (inactive)	> 100 µM (inactive)	> 100 µM (inactive)
CCOC1C=CCCO1 (centres undefined)	> 100 µM (inactive)	> 100 µM (inactive)	> 100 µM (inactive)	> 100 µM (inactive)	> 100 µM (inactive)	> 100 µM	> 100 µM (inactive)	> 100 µM (inactive)	> 100 µM (inactive)	> 100 µM (inactive)	> 100 µM (inactive)	2.99 µM (inactive)	> 100 µM (inactive)	> 100 µM (inactive)	> 100 µM (inactive)	> 100 µM (inactive)	> 100 µM (inactive)	> 100 µM (inactive)
COC1OC2COC(C)(C)OC2C2OC(C)(C)OC12 (centres undefined)	55.2 µM (inactive)	14.6 µM (inactive)	21.8 µM (inactive)	22.6 µM (inactive)	> 100 µM (inactive)	> 100 µM	21.7 µM (inactive)	17 µM (inactive)	82.4 µM (inactive)	25.7 µM (inactive)	60.5 µM (inactive)	> 100 µM (inactive)	49.8 µM (inactive)	45.1 µM (inactive)	46.5 µM (inactive)	> 100 µM (inactive)	69.5 µM (inactive)	63.8 µM (inactive)
COc1ccc(CCN2CCN(CCCc3ccccc3)CC2)cc1	> 100 µM (inactive)	> 100 µM (inactive)	> 100 µM (inactive)	> 100 µM (inactive)	86.9 µM (inactive)	37.7 µM	> 100 µM (inactive)	> 100 µM (inactive)	64.3 µM (inactive)	> 100 µM (inactive)	33.5 µM (inactive)	55.6 µM (inactive)	64.4 µM (inactive)	> 100 µM (inactive)	22.9 µM (inactive)	> 100 µM (inactive)	> 100 µM (inactive)	83 µM (inactive)
Oc1c(Br)cc(Br)cc1CN(Cc1cc(Br)cc(Br)c1O)C1CCCCC1	26.7 µM (inactive)	34.9 µM (inactive)	33.6 µM (inactive)	21.2 µM (inactive)	34.3 µM (inactive)	31.9 µM	24.4 µM (inactive)	30.2 µM (inactive)	23.2 µM (inactive)	30.5 µM (inactive)	23.7 µM (inactive)	31.7 µM (inactive)	26.4 µM (inactive)	31.3 µM (inactive)	14.7 µM (inactive)	38 µM (inactive)	35.9 µM (inactive)	39.9 µM (inactive)
